Reference: patent US4065570A (priority 1975, dated 1977)
Where two headings read alike, the source gives them in different places.

Legend:
[1] = test system: viruses of the Picorna group; test: antiviral activity (general statements); type: cell-based; conditions: result in words
Protocol: The in vitro activity of representative compounds of the present invention are set forth below.
(§1) In preparing the compounds for testing, they were handled aseptically throughout. The compounds were dissolved in a minimum amount of a suitable solvent, and the final dilutions were made up to the required volume in a complete culture medium in a concentration not exceeding the predetermined maximum non-cytotoxic levels.
(§2) The cell cultures used in all primary in vitro antipicorna virus screening tests were an established cell line of the African green monkey kidney (VERO), a primary cell culture of the Cercopythecus monkey kidney, or human embryonic lung diploid cells WI-38.
(§3) The cells were grown in test tubes in a suitable medium. Immediately before use the initial medium was replaced with the one which contained the test compound in an appropriate concentration. After the virus was added, the infected culture was incubated at 37° C for a number of days and the cytopathic effect of the virus observed and recorded. The results were read every day in all of the tubes and the destruction of cells assessed in precentage of the cell sheet destroyed: 0-25-50-75-100%. As controls, cells with only virus (for cytopathic effect) or with only the compound (for cytotoxic effect) were used as well as the normal, uninfected cells (no cytotoxic -- no cytopathic effects).
(§4) Net difference in cytopathic effect between treated and control tubes expressed in percentage give the extent of the inhibitory activity of the substance.

[2] = test system: Cynomolgus monkeys; conditions: cynomolgus monkey, in vivo, 25 mg/kg/day
[3] = test system: Echo 11; type: cell-based; conditions: Echo 11, Primary Monkey Kidney Cells, 178 TCID50
Protocol: as §1, §2
(§5) Standard batches of the viruses were made by growing the virus in an appropriate cell culture and then making a pool which was dispersed in ampoules and kept frozen at -76° C until used. The titer of each virus was determined in the cell cultures used.
as §3, §4
(§6) The TCID50 represents the tissue culture infective dose of virus that will destroy 50% of the cells.

[4] = test system: Echo 9; type: cell-based; conditions: Echo 9, Vero, 31.6 TCID50
Protocol: as §1, §2, §5, §3, §4, §6

[5] = test system: Polio I; test: organism not typed; type: cell-based; conditions: Vero
[6] = test system: mice; test: LD50 in mice; type: in vivo
[7] = test system: primary monkey kidney cells; test: cytotoxicity against primary monkey kidney cells; type: cell-based, Cercopythecus monkey; conditions: for Toxicity (%): pMK
Protocol: as §1, §2
(§7) The cytotoxic stuides were performed on each of the compounds to determine the level of response of the cells used to the potentially toxic action of the substances.
as §3

[8] = test system: Vero cells; test: cytotoxicity against Vero cells; type: cell-based, African green monkey; conditions: for Toxicity (%): Vero
Protocol: as §1, §2, §7, §3

[9] = test system: Mahoney strain of Polio virus; type: in vivo, Cynomolgus monkey
[10] = Virus + Substance, 25 mg/kg/day, i.p. or s.c.
[11] = Virus + Substance, 25 mg/kg/day, 4th Day
[12] = Virus + Substance, 25 mg/kg/day, 8th Day
[13] = Virus + Substance, 25 mg/kg/day, 11th Day
[14] = Virus + Substance, 25 mg/kg/day, 15th Day

## Acetylated 5-(3',4',-Dimethoxybenzal) hydantoin [Example 14]
[1]
  degree of antiviral activity: greater degree of antiviral activity than the unacetylated compound
[2]
  Cumulative morbidity, paralyses, %: 0%
  Cumulative morbidity, paralyses, No.: 0/5
  Histopathological changes as brain, %: 0%
  Histopathological changes as brain, No.: 0/5
[3]; 0.1 μg/ml
  % Inhibition: 7%
[3]; 0.3 μg/ml
  % Inhibition: 32%
[3]; 0.7 μg/ml
  % Inhibition: 32%
[3]; 1.0 μg/ml
  % Inhibition: 68%
[3]; 3.3 μg/ml
  % Inhibition: 100%
[3]; 6.7 μg/ml
  % Inhibition: 100%
[3]; 10 μg/ml
  % Inhibition: 100%
[3]; 25 μg/ml
  % Inhibition: 100%
[3]; 50 μg/ml
  % Inhibition: 100%
[3]; 100 μg/ml
  % Inhibition: 100%
[4]; 0.1 μg/ml
  % Inhibition: 8%
[4]; 0.3 μg/ml
  % Inhibition: 29%
[4]; 0.7 μg/ml
  % Inhibition: 42%
[4]; 1.0 μg/ml
  % Inhibition: 71%
[4]; 3.3 μg/ml
  % Inhibition: 92%
[4]; 6.7 μg/ml
  % Inhibition: 100%
[4]; 10.0 μg/ml
  % Inhibition: 100%
[5]; 316 TCID50, 0.5 μg/ml
  % Inhibition: 93%
[5]; 316 TCID50, 1 μg/ml
  % Inhibition: 100%
[5]; 316 TCID50, 5 μg/ml
  % Inhibition: 100%
[5]; 316 TCID50, 10 μg/ml
  % Inhibition: 100%
[6]; intraperitoneal, daily injection during 16 days
  subacute LD50: 400 to 500 mg/kg
[6]; oral administration
  LD50: greater than 1,300 mg/kg
[7]; Primary Monkey Kidney Cells, 50% inhibition of the cell growth
  Cytotoxicity CTD50: > 100 µg/mL
[7]; Primary Monkey Kidney Cells, maximal non-toxic concentration
  Cytotoxicity CTD0: > 100 µg/mL
[7]; 0.1 micrograms/ml
  Toxicity (%): 0%
[7]; 0.3 micrograms/ml
  Toxicity (%): 0%
[7]; 0.7 micrograms/ml
  Toxicity (%): 0%
[7]; 1.0 micrograms/ml
  Toxicity (%): 0%
[7]; 3.3 micrograms/ml
  Toxicity (%): 0%
[7]; 6.7 micrograms/ml
  Toxicity (%): 0%
[7]; 10 micrograms/ml
  Toxicity (%): 0%
[7]; 25 micrograms/ml
  Toxicity (%): 0%
[7]; 33.3 micrograms/ml
  Toxicity (%): 0%
[7]; 50 micrograms/ml
  Toxicity (%): 0%
[7]; 66.7 micrograms/ml
  Toxicity (%): 0%
[7]; 75 micrograms/ml
  Toxicity (%): 0%
[7]; 100 micrograms/ml
  Toxicity (%): 0%
[7]; 150 micrograms/ml
  Toxicity (%): 10%
[7]; 200 micrograms/ml
  Toxicity (%): 75%
[7]; 250 micrograms/ml
  Toxicity (%): 100%
[7]; 300 micrograms/ml
  Toxicity (%): 100%
[8]; Vero cells, 50% inhibition of the cell growth
  Cytotoxicity CTD50: > 100 µg/mL
[8]; Vero cells, maximal non-toxic concentration
  Cytotoxicity CTD0: > 10 µg/mL
[8]; 0.1 micrograms/ml
  Toxicity (%): 0%
[8]; 0.3 micrograms/ml
  Toxicity (%): 0%
[8]; 0.7 micrograms/ml
  Toxicity (%): 0%
[8]; 1.0 micrograms/ml
  Toxicity (%): 0%
[8]; 3.3 micrograms/ml
  Toxicity (%): 0%
[8]; 6.7 micrograms/ml
  Toxicity (%): 0%
[8]; 10 micrograms/ml
  Toxicity (%): 10%
[8]; 25 micrograms/ml
  Toxicity (%): 10%
[8]; 33.3 micrograms/ml
  Toxicity (%): 10%
[8]; 50 micrograms/ml
  Toxicity (%): 10%
[8]; 66.7 micrograms/ml
  Toxicity (%): 10%
[8]; 75 micrograms/ml
  Toxicity (%): 10%
[8]; 100 micrograms/ml
  Toxicity (%): 10%
[8]; 150 micrograms/ml
  Toxicity (%): 10%
[8]; 200 micrograms/ml
  Toxicity (%): 25%
[8]; 250 micrograms/ml
  Toxicity (%): 75%
[8]; 300 micrograms/ml
  Toxicity (%): 100%
[9]; Cynomolgus monkeys, result in words
  effectiveness against the Mahoney Polio virus strain in the infected animals: effective against the Mahoney Polio virus strain in the infected animals
[9]; [10]
  Average Day of Paralysis: 13.5
  Cumulative morbidity, paralyses, %: 25.0%
  Cumulative morbidity, paralyses, No.: 2/8
  Histopathological changes as brain, %: 20.0%
  Histopathological changes as brain, No.: 2/10
[9]; [11]
  Presence of poliovirus in rectal, %: 36.4%
  Presence of poliovirus in rectal, No.: 4/11
[9]; [12]
  Presence of poliovirus in rectal, %: 25.0%
  Presence of poliovirus in rectal, No.: 2/8
[9]; [13]
  Presence of poliovirus in rectal, %: 25.0%
  Presence of poliovirus in rectal, No.: 2/8
[9]; [14]
  Presence of poliovirus in rectal, %: 16.7%
  Presence of poliovirus in rectal, No.: 1/6
